According to patent publication US20230013823A1, “INHIBITORS OF HUMAN IMMUNODEFICIENCY VIRUS REPLICATION” (VIV HEALTHCARE UK (No. 5) LIMITED, priority 2019, published 2023):

Experiments:
[1] = test system: recombinant NL4-3 virus (Renilla luciferase in nef); assay: HIV cell culture assay (antiviral activity, luciferase readout in MT-2 cells); assay type: cell-based; settings: Renilla, NL43
Procedure, shortened: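 MT-2 cells were infected for 4-5 days with 293T-derived recombinant NL4-3 reporter virus in the presence of serially diluted compound. Antiviral activity was quantified as luciferase activity using a live-cell substrate. EC50 was derived from the median effect equation.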

[2] = Compound cytotoxicity, XTT-based colorimetric assay; assay type: cell-based; settings: human; uninfected MT2 cells, day 4, XTT
Procedure: Compound cytotoxicity and the corresponding CC50 values were determined using the same protocol as described in the antiviral assay except that uninfected cells were used. Cytotoxicity was assessed on day 4 in uninfected MT2 cells by using an XTT (2,3-bis[2-Methoxy-4-nitro-5-sulfophenyl]-2H-tetrazolium-5-carboxyanilide inner salt)-based colorimetric assay (Sigma-Aldrich, St Louis, Mo.).

| SMILES | EC50 [1] [nM] | CC50 at 4 days [2] [nM] |
| --- | --- | --- |
| Cn1nc(NS(C)(=O)=O)c2c(Cl)ccc(-n3c([C@H](Cc4cc(F)cc(F)c4)NC(=O)Cn4nc(C(F)(F)F)c5c4C(F)(F)[C@@H]4C[C@H]54)nc4cc(-c5ccn(CC(C)(F)F)n5)ccc4c3=O)c21 (atropisomer, axis not shown; (P)) [Example 66, N—((S)-1-((3P)-3-(4-chloro-1-methyl-3-(methylsulfonamido)-1H-indazol-7-yl)-7-(1-(2,2-difluoropropyl)-1H-pyrazol-3-yl)-4-oxo-3,4-dihydroquinazolin-2-yl)-2-(3,5-difluorophenyl)ethyl)-2-((3bS,4aR)-5,5-difluoro-3-(trifluoromethyl)-3b,4,4a,5-tetrahydro-1H-cyclopropa[3,4]cyclopenta[1,2-c]pyrazol-1-yl)acetamide] | 0.069 | > 100 |
| C[C@H](C(=O)N[C@@H](Cc1cc(F)cc(F)c1)c1nc2cc(-c3ccn(CC(C)(F)F)n3)ccc2c(=O)n1-c1ccc(Cl)c2c(NS(C)(=O)=O)nn(C)c12)n1ccc(C2CC2)n1 (atropisomer, axis not shown; (P)) [Example 65, (R)—N—((S)-1-((3P)-3-(4-chloro-1-methyl-3-(methylsulfonamido)-1H-indazol-7-yl)-7-(1-(2,2-difluoropropyl)-1H-pyrazol-3-yl)-4-oxo-3,4-dihydroquinazolin-2-yl)-2-(3,5-difluorophenyl)ethyl)-2-(3-cyclopropyl-1H-pyrazol-1-yl)propanamide] | 0.17 | > 100 |
| COc1nccc(-c2ccc3c(=O)n(-c4ccc(Cl)c5c(NS(C)(=O)=O)nn(C)c45)c([C@H](Cc4cc(F)cc(F)c4)NC(=O)Cn4nc(C(F)F)c5c4C(F)(F)[C@@H]4C[C@H]54)nc3c2)n1 (atropisomer, axis not shown; (P)) [Example 5, N—((S)-1-((3P)-3-(4-chloro-1-methyl-3-(methylsulfonamido)-1H-indazol-7-yl)-7-(2-methoxypyrimidin-4-yl)-4-oxo-3,4-dihydroquinazolin-2-yl)-2-(3,5-difluorophenyl)ethyl)-2-((3bS,4aR)-3-(difluoromethyl)-5,5-difluoro-3b,4,4a,5-tetrahydro-1H-cyclopropa[3,4]cyclopenta[1,2-c]pyrazol-1-yl)acetamide] | 0.083 | > 500 |
| Cn1nc(NS(C)(=O)=O)c2c(Cl)ccc(-n3c([C@H](Cc4cc(F)cc(F)c4)NC(=O)Cn4nc(C(F)F)c5c4C(F)(F)[C@@H]4C[C@H]54)nc4cc(-c5cc(C(C)(F)F)ccn5)ccc4c3=O)c21 (atropisomer, axis not shown; (P)) [Example 37, N—((S)-1-((3P)-3-(4-chloro-1-methyl-3-(methylsulfonamido)-1H-indazol-7-yl)-7-(4-(1,1-difluoroethyl)pyridin-2-yl)-4-oxo-3,4-dihydroquinazolin-2-yl)-2-(3,5-difluorophenyl)ethyl)-2-((3bS,4aR)-3-(difluoromethyl)-5,5-difluoro-3b,4,4a,5-tetrahydro-1H-cyclopropa[3,4]cyclopenta[1,2-c]pyrazol-1-yl)acetamide] | 0.33 | > 100 |
| CS(=O)(=O)Nc1nn(CCCF)c2c(-n3c([C@H](Cc4cc(F)cc(F)c4)NC(=O)Cn4nc(C(F)F)c5c4C(F)(F)[C@@H]4C[C@H]54)nc4cc(-c5ccnn5CC(F)(F)C(F)F)ccc4c3=O)ccc(Cl)c12 [Example 62, N—((S)-1-((3P)-3-(4-chloro-1-(3-fluoropropyl)-3-(methylsulfonamido)-1H-indazol-7-yl)-4-oxo-7-(1-(2,2,3,3-tetrafluoropropyl)-1H-pyrazol-5-yl)-3,4-dihydroquinazolin-2-yl)-2-(3,5-difluorophenyl)ethyl)-2-((3bS,4aR)-3-(difluoromethyl)-5,5-difluoro-3b,4,4a,5-tetrahydro-1H-cyclopropa[3,4]cyclopenta[1,2-c]pyrazol-1-yl)acetamide] | 0.074 | > 100 |
| Cn1nc(NS(C)(=O)=O)c2c(Cl)ccc(-n3c([C@H](Cc4cc(F)cc(F)c4)NC(=O)Cn4nc(C(F)F)c5c4C(F)(F)[C@@H]4C[C@H]54)nc4cc(-c5cccc(C(C)(F)F)n5)ccc4c3=O)c21 (atropisomer, axis not shown; (P)) [Example 28, N—((S)-1-((3P)-3-(4-chloro-1-methyl-3-(methylsulfonamido)-1H-indazol-7-yl)-7-(6-(1,1-difluoroethyl)pyridin-2-yl)-4-oxo-3,4-dihydroquinazolin-2-yl)-2-(3,5-difluorophenyl)ethyl)-2-((3bS,4aR)-3-(difluoromethyl)-5,5-difluoro-3b,4,4a,5-tetrahydro-1H-cyclopropa[3,4]cyclopenta[1,2-c]pyrazol-1-yl)acetamide] | 0.12 | > 100 |
| Cn1nc(NS(C)(=O)=O)c2c(Cl)ccc(-n3c([C@H](Cc4cc(F)cc(F)c4)NC(=O)Cn4nc(C(F)F)c5c4C(F)(F)[C@@H]4C[C@H]54)nc4cc(-c5ccc6ocnc6c5)ccc4c3=O)c21 (atropisomer, axis not shown; (P)) [Example 46, N—((S)-1-(7-(benzo[d]oxazol-5-yl)-(3P)-3-(4-chloro-1-methyl-3-(methylsulfonamido)-1H-indazol-7-yl)-4-oxo-3,4-dihydroquinazolin-2-yl)-2-(3,5-difluorophenyl)ethyl)-2-((3bS,4aR)-3-(difluoromethyl)-5,5-difluoro-3b,4,4a,5-tetrahydro-1H-cyclopropa[3,4]cyclopenta[1,2-c]pyrazol-1-yl)acetamide] | 0.34 | > 100 |
| Cn1nc(NS(C)(=O)=O)c2c(Cl)ccc(-n3c([C@H](Cc4cc(F)cc(F)c4)NC(=O)Cn4nc(C(F)F)c5c4C(F)(F)[C@@H]4C[C@H]54)nc4cc(-c5ccnc(S(C)(=O)=O)n5)ccc4c3=O)c21 (atropisomer, axis not shown; (P)) [Example 9, N—((S)-1-((3P)-3-(4-chloro-1-methyl-3-(methylsulfonamido)-1H-indazol-7-yl)-7-(2-(methylsulfonyl)pyrimidin-4-yl)-4-oxo-3,4-dihydroquinazolin-2-yl)-2-(3,5-difluorophenyl)ethyl)-2-((3bS,4aR)-3-(difluoromethyl)-5,5-difluoro-3b,4,4a,5-tetrahydro-1H-cyclopropa[3,4]cyclopenta[1,2-c]pyrazol-1-yl)acetamide] | 0.15 | > 500 |
| Cn1nc(NS(C)(=O)=O)c2c(Cl)ccc(-n3c([C@H](Cc4cc(F)cc(F)c4)NC(=O)Cn4nc(C(F)F)c5c4C(F)(F)[C@@H]4C[C@H]54)nc4cc(-c5ccn(CCC(C)(F)F)n5)ccc4c3=O)c21 (atropisomer, axis not shown; (P)) [Example 52, N—((S)-1-((3P)-3-(4-chloro-1-methyl-3-(methylsulfonamido)-1H-indazol-7-yl)-7-(1-(3,3-difluorobutyl)-1H-pyrazol-3-yl)-4-oxo-3,4-dihydroquinazolin-2-yl)-2-(3,5-difluorophenyl)ethyl)-2-((3bS,4aR)-3-(difluoromethyl)-5,5-difluoro-3b,4,4a,5-tetrahydro-1H-cyclopropa[3,4]cyclopenta[1,2-c]pyrazol-1-yl)acetamide] | 0.068 | > 100 |
| Cn1nc(NS(C)(=O)=O)c2c(Cl)ccc(-n3c([C@H](Cc4cc(F)cc(F)c4)NC(=O)Cn4nc(C(F)F)c5c4C(F)(F)[C@@H]4C[C@H]54)nc4cc(-c5ccn(CC(C)(C)C)n5)ccc4c3=O)c21 (atropisomer, axis not shown; (P)) [Example 29, N—((S)-1-((3P)-3-(4-chloro-1-methyl-3-(methylsulfonamido)-1H-indazol-7-yl)-7-(1-neopentyl-1H-pyrazol-3-yl)-4-oxo-3,4-dihydroquinazolin-2-yl)-2-(3,5-difluorophenyl)ethyl)-2-((3bS,4aR)-3-(difluoromethyl)-5,5-difluoro-3b,4,4a,5-tetrahydro-1H-cyclopropa[3,4]cyclopenta[1,2-c]pyrazol-1-yl)acetamide] | 0.21 | > 500 |
| Cn1nc(NS(C)(=O)=O)c2c(Cl)ccc(-n3c([C@H](Cc4cc(F)cc(F)c4)NC(=O)Cn4nc(C(F)F)c5c4C(F)(F)[C@@H]4C[C@H]54)nc4cc(-c5ccc(F)c(C(F)(F)F)n5)ccc4c3=O)c21 (atropisomer, axis not shown; (P)) [Example 30, N—((S)-1-((3P)-3-(4-chloro-1-methyl-3-(methylsulfonamido)-1H-indazol-7-yl)-7-(5-fluoro-6-(trifluoromethyl)pyridin-2-yl)-4-oxo-3,4-dihydroquinazolin-2-yl)-2-(3,5-difluorophenyl)ethyl)-2-((3bS,4aR)-3-(difluoromethyl)-5,5-difluoro-3b,4,4a,5-tetrahydro-1H-cyclopropa[3,4]cyclopenta[1,2-c]pyrazol-1-yl)acetamide] | 0.22 | > 500 |
| Cn1nc(NS(C)(=O)=O)c2c(Cl)ccc(-n3c([C@H](Cc4cc(F)cc(F)c4)NC(=O)Cn4nc(C(F)F)c5c4C(F)(F)[C@@H]4C[C@H]54)nc4cc(-c5cnn(CC(F)(F)F)c5)ccc4c3=O)c21 (atropisomer, axis not shown; (P)) [Example 41, N—((S)-1-((3P)-3-(4-chloro-1-methyl-3-(methylsulfonamido)-1H-indazol-7-yl)-4-oxo-7-(1-(2,2,2-trifluoroethyl)-1H-pyrazol-4-yl)-3,4-dihydroquinazolin-2-yl)-2-(3,5-difluorophenyl)ethyl)-2-((3bS,4aR)-3-(difluoromethyl)-5,5-difluoro-3b,4,4a,5-tetrahydro-1H-cyclopropa[3,4]cyclopenta[1,2-c]pyrazol-1-yl)acetamide] | 0.097 | > 100 |
